Experiments:
TRPA1 receptor [1] = target: T1, TRPA1 receptor (Homo sapiens, UniProt O75762); experiment: cell-based; design: activation: dose or concentration left out as unconfirmed; conditions: for % of AITC Receptor Activation (from Data in Table II): restated in Table III from Table II; for activation at 100 µM / activation: HEK293; for activation at 100 µM / activation / TRPA1 Direct addition: percentage of the control (allyl isothiocyanate) calcium count, material dissolved in DMSO at 100 micromolar, HEK cells with TRPA1; for activation at 100 µM / TRPA1 Direct addition: direct addition; for activation at 100 µM: read-out: TRPA1 Direct addition; for activation: pre-incubation, read-out: TRPA1 Pre-incubation;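 for TRPA1 Pre-incubation: values above 100 mean more active than the control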
T1 construct: expressed in transfected cells; host or cells: HEK cell line
Method in brief: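 HEK cells expressing TRPA1 were treated with test compounds dissolved in DMSO at 100 micromolar, with allyl isothiocyanate as positive control. Agonism was read on a FLIPR as calcium-dye fluorescence counts above background. A TRPA1 activator was defined as giving at least 1000 counts above background at 1 mM.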

[2] = Panelists brushed with dentifrice Formula Ia-Ie and rated reduction in soapy off taste and flavor character; type: in vivo; conditions: molecule incorporated in toothpaste Formula Ia-Ie; panelists n=4
Description: Then, these materials were further screened in Test Formula Ia-Ie, by incorporating at the indicated level. After the toothpaste was made, a small group of panelists (n=4) brushed with the dentifrice and rated the reduction in soapy off taste and the flavor character the compound provided.

TRPA1 receptor [3] = target: T1, TRPA1 receptor; type: cell-based; conditions: percentage of the control (allyl isothiocyanate) calcium count, material dissolved in DMSO at 100 micromolar, HEK cells with TRPA1
[4] = concentration where the cooling effect could be clearly recognized; cited from earlier work

T1 sequence (O75762 whole entry): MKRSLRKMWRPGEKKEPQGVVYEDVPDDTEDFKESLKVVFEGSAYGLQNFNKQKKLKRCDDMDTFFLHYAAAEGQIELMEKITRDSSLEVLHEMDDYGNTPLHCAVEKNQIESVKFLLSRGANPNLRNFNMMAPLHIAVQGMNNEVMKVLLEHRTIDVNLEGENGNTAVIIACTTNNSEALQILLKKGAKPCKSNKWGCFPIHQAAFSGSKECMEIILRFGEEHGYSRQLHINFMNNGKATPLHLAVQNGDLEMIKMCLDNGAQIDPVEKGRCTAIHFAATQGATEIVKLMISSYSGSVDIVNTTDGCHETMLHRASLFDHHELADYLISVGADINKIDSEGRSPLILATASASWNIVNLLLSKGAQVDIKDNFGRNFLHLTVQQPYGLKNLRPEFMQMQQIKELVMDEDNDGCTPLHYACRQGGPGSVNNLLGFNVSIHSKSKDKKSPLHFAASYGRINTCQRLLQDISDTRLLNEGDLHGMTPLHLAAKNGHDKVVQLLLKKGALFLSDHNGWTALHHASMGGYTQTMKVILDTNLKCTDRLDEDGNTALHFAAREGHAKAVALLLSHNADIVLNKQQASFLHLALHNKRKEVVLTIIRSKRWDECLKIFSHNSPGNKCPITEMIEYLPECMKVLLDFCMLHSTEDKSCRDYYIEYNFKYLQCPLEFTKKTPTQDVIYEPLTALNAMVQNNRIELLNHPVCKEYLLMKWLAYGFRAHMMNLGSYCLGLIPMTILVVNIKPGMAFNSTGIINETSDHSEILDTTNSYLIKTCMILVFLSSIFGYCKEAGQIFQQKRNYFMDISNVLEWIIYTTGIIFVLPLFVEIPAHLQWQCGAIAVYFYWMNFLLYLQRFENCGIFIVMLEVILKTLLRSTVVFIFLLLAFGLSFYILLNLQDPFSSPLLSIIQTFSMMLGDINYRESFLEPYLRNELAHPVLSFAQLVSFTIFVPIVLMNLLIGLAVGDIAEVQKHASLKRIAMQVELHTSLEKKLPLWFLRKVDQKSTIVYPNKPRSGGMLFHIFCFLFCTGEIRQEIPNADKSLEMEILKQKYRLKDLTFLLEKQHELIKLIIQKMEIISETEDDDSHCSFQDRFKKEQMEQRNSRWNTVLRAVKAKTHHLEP

| Molecule | TRPA1 Direct addition (TRPA1 receptor [1]) [%] | TRPA1 Pre-incubation (TRPA1 receptor [3]) [%] | further results |
| --- | --- | --- | --- |
| CCC(C)/C=C(\C=O)c1ccccc1 (stereo not drawn) [4-Methyl-2-phenyl-2-hexenal, 4-Methyl-2-phenyl-2-hexenal] | – | – | % of AITC Receptor Activation (from Data in Table II) (TRPA1 receptor [1]): 132%; Qualitative Team Evaluations (n = 4) [2]: Reduces the bitterness from alkyl phosphates, but it has a bitter character on its own |
| O=C(c1ccccc1)c1ccccc1 [Benzophenone] | – | – | activation at 100 µM (TRPA1 receptor [1]): 138%; activation (TRPA1 receptor [1]): 0%; % of AITC Receptor Activation (from Data in Table II) (TRPA1 receptor [1]): 138%; Qualitative Team Evaluations (n = 4) [2]: No observable effect |
| CCOc1cc(C=O)ccc1OC(=O)C(C)C [Ethyl vanillin isobutyrate] | – | – | Qualitative Team Evaluations (n = 4) [2]: Great reduction in bitter taste with no aftertaste. Slight vanilla character. Similar to vanillin isobutyrate |
| C=C(OCC)C1C(C)(C)CC(=O)CC1(C)C [Kephalis] | −0.23 | 83.88 | – |
| C=C[C@](C)(O)CCC=C(C)C [L-Linalool] | −11.37 | 65.28 | – |
| CC(C)[C@@H]1CC[C@@H](C)CC1=O [L-Menthone] | 4.4 | 70.56 | – |
| O=C(O)C(O)C(O)C(=O)O [L-Tataric Acid] | −2.77 | 79 | – |
| CC(C)[C@@H]1CC[C@@H](C)C[C@H]1O [L-menthol] | – | – | cooling threshold [4]: about 800 ppb |
| CC(=O)O[C@@H]1C[C@H](C)CC[C@H]1C(C)C [Laevo Menthyl Acetate] | −9.39 | 87.91 | – |
| CCCCCCCCCCCC=O [Lauric Aldehyde] | 19.05 | 85.96 | – |
| CC(C)=CCC/C(C)=C/C=O [Lemarome] | 80.13 | 41.41 | – |
| CC(C)[C@@H]1CC[C@@H](C)C[C@@H]1O [Material 1-neomenthol, 1-neomenthol] | – | – | cooling threshold [4]: about 3,000 ppb |
| COC(=O)CCCc1ccccc1 [Methyl 4-Phenyl butyrate] | −0.22 | 98.83 | – |
| CC1CCC(C(C)(C)S)C(=O)C1 (stereo not drawn) [P-Mentha-8-Thiol-3-one] | 46.29 | 73.82 | – |
| Cc1ccc(C=O)cc1 [P-Totylaldehyde] | 11.1 | 60.52 | – |
| CC(=O)OCCCc1ccccc1 [Phenyl Propyl Acetate] | −9.54 | 69.3 | – |
| C=C(C)CCCC(C)CCOC(C)=O (stereo not drawn) [Rhodinyl Acetate] | −17.14 | 66.4 | – |
| CC1C2CC(CC2C2CCCC(O)C2)C1(C)C (stereo not drawn) [Sandela] | 25.65 | 94.17 | – |
| [Cl][Sn][Cl] [Stannous Chloride] | −14.1 | 54.35 | – |

| Molecule | TRPA1 Direct addition (TRPA1 receptor [1]) [%] | TRPA1 Pre-incubation (TRPA1 receptor [3]) [%] | further results |
| --- | --- | --- | --- |
| CCC(C)(O)CCCC(C)C (stereo not drawn) [Tetrahydrolinalool] | −17.09 | 70.8 | – |
| Oc1cc(Cl)ccc1Oc1ccc(Cl)cc1Cl [Triclosan, reference compound] | – | – | activation at 100 µM (TRPA1 receptor [1]): 196%; activation (TRPA1 receptor [1]): -0.05%; % of AITC Receptor Activation (from Data in Table II) (TRPA1 receptor [1]): 277%; Qualitative Team Evaluations (n = 4) [2]: Shifted off-taste from soapy to bitter after 10 minutes |
| C=CCCCCCCCCC=O [Undecylenic Aldehyde] | −14.32 | 52.14 | – |
| C=C(C)[C@@H]1CCC2=CCC[C@@H](C)[C@]2(C)C1 [Valencene] | 0.1 | 94.99 | – |
| COc1cc(C=O)ccc1OC(=O)C(C)C [Vanillin Isobutyrate] | – | – | activation at 100 µM (TRPA1 receptor [1]): 118%; activation (TRPA1 receptor [1]): -0.11%; % of AITC Receptor Activation (from Data in Table II) (TRPA1 receptor [1]): 118%; Qualitative Team Evaluations (n = 4) [2]: Great reduction in bitter taste with no aftertaste. Slight vanilla character. |
| [Cl-].[Cl-].[Zn+2] [Zinc Chloride] | 5.46 | 21.61 | – |
| C=C(C)C1CC=C(C)C(OC(C)=O)C1 (stereo not drawn) [carvyl acetate] | −0.25 | 117.9 | – |
| CC(C)[C@@H]1CC[C@@H](C)C[C@@H]1O [d-neomenthol] | – | – | cooling threshold [4]: about 25,000 ppb |
| C/C=C/C(=O)C1C(C)C=CCC1(C)C (stereo not drawn) [delta-damascone] | 0.74 | 138.93 | – |
| C/C=C/c1ccc(OCC)c(OC)c1 [ethyl isoeugenol] | −0.14 | 111.43 | – |
| CCOc1cc(C2OCC(C)O2)ccc1O (stereo not drawn) [ethyl vanillin propylene glycol acetal] | 0 | 103.19 | – |
| CCCC(=O)OC(C)c1ccccc1 (stereo not drawn) [methyl benzyl butyrate] | −0.34 | 116.22 | – |
| CCCC/C=C/C=C/C=O [trans,trans,-2,4-Nonadienal] | 112.15 | −4.24 | – |
| Benzaldehyde Glyceryl Acetal | −2.74 | 30.62 | – |
| Iso Jasmone | 11.48 | 58.16 | – |
| Jasmonyl | 7.36 | 68.48 | – |
| Phellandrene | 1.65 | 52.15 | – |
| Rhodinol 70 Spec 59508 | −9.13 | 87.57 | – |
| Roselea Spec 59514 | 14.53 | 71.26 | – |
